The source made the active and inactive calls. Cut-off read from the data, not from the text of the source, for most assays here: actives have a measured EC50 and inactives only a lower limit.
What was measured:
[1] = Luminescence Cell-Based Dose Confirmation HTS to Identify Activators of 5'UTR Stem-Loop Driven Alpha-Synuclein mRNA Translation in H4 Neuroglioblastoma Cells. [Related pubchem assays: 1829 (Project Summary), 1814 (Primary HTS)]; assay type: functional
[2] = Luminescence Cell-Based Dose Response HTS to Identify Activators of Luciferase Translation or Activity in H4 […] Cells. [Related pubchem assays: 1829 (Project Summary), 1814 (Primary HTS)]; assay type: functional
H4 = assay: Luminescence Cell-Based Dose Response HTS to Identify Activators of 5'UTR Stem-Loop Driven Prion Protein mRNA Translation in H4 Neuroglioblastoma Cells. [Related pubchem assays: 1829 (Project Summary), 1814 (Primary HTS)]; assay type: functional; conditions: Homo sapiens
Cytochrome P450 2C9 = Cytochrome P450 2C9 (Homo sapiens, UniProt P11712)
Sequence of Cytochrome P450 2C9 (P11712 whole entry): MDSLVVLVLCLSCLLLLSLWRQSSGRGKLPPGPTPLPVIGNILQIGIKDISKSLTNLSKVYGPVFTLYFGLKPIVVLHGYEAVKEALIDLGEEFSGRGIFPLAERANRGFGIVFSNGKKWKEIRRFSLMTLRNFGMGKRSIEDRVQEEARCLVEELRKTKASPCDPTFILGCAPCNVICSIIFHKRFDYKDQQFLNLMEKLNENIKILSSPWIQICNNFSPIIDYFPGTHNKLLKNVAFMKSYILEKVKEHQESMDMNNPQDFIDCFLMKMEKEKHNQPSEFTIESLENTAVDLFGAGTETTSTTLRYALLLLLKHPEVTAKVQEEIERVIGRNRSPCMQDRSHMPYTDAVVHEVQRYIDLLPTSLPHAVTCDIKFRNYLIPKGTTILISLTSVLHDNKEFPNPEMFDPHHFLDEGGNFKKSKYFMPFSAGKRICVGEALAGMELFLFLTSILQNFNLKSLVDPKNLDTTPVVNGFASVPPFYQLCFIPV

[3] = target: T1, Corticotropin-releasing factor receptor 2/Corticotropin-releasing factor-binding protein (Homo sapiens, UniProt P24387+Q13324); assay: activators of CRF receptor 2 with binding protein – uHTS hits, confirmation (AID 602473); assay type: functional; conditions: read-out: EC50_Mean
T1 sequence (Q13324 whole entry): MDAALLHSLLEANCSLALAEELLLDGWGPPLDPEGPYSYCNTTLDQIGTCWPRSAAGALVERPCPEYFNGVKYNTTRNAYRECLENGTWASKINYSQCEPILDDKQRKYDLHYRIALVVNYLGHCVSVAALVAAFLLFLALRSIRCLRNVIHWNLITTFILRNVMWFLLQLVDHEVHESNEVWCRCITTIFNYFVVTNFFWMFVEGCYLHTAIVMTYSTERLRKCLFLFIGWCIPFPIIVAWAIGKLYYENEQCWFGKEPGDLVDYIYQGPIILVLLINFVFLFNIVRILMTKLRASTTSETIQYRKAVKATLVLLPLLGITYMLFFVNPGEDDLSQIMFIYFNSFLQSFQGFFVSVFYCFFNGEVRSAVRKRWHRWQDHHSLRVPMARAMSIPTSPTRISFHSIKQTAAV
T1 sequence (P24387 whole entry): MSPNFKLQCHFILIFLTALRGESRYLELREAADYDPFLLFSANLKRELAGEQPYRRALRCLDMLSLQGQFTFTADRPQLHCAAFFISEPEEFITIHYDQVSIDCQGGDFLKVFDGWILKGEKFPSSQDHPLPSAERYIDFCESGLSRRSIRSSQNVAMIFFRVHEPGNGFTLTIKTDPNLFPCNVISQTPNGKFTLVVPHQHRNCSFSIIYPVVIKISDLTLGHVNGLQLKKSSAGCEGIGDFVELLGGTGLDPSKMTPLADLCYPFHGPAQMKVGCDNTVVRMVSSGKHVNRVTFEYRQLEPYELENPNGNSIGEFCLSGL

[4] = Trypanosoma cruzi growth suppression in host cells – NIH3T3 host cells, beta-gal luminescence, confirmation (AID 2044); assay type: functional, cell-based;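 note: intracellular parasites grown in NIH/3T3 mouse fibroblasts as host cells; luminescent beta-galactosidase reporter signal from transgenic T. cruzi replicating inside host cells; inhibitors lower the luminescence signal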
[5] = NIH3T3 cell viability loss – ATP luminescence, mouse fibroblasts, counter-screen, dose response (AID 2010); assay type: functional, cell-based;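 note: cells exposed to compound for about 90 hours before reading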
[6] = tested on: Streptococcus sp. 'group A'; assay: Streptococcus pyogenes SK(-)GAS viability under kanamycin – luminescence, BacTiterGlo, confirmation, counter-screen for streptokinase expression inhibitor project, dose response (AID 1900); assay type: functional, organism-based
Streptokinase A = target: T2, Streptokinase A (Streptococcus pyogenes serotype M1, UniProt P10520); assay: viability-normalized secreted streptokinase activity reduction – plasminogen activation absorbance, OD405, dose response (AID 1914); assay type: functional, Streptococcus pyogenes M1 GAS;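 note: secreted streptokinase activity via plasminogen activation per viability signal from cell pellet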
T2 sequence (P10520 whole entry): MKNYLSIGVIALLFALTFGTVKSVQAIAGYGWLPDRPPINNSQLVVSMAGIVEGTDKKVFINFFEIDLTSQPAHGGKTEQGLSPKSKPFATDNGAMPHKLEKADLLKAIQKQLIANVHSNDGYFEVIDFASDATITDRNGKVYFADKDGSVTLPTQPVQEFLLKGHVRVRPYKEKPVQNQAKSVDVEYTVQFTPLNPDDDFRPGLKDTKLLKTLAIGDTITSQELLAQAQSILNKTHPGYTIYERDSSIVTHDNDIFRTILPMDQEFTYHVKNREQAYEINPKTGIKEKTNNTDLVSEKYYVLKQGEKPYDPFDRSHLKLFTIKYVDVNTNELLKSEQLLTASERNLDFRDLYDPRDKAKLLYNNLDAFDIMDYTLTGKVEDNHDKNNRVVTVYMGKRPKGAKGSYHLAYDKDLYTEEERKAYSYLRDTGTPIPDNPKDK

Streptococcus = assay: GAS UMAA2166 growth inhibition – luminescence, BacTiterGlo, counter-screen for streptokinase expression inhibitor project, dose response (AID 1915); assay type: functional, organism-based;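 note: potency for reduction of bacterial viability or growth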

Row | SMILES | EC50 [1] | EC50 [2] | EC50 (H4) | EC50 [4] | EC50 [5] | further results
1 | CC(C)c1ccc(CNc2ccc3c(c2)ncn3C)cc1 | 0.217 µM (active) | 0.228 µM (inconclusive) | > 120 µM (not active) | – | – | –
2 | NC(=O)NCc1ccc(Cl)cc1 | – | – | – | – | – | AC50 (Cytochrome P450 2C9): 0.0501 µM (inconclusive)
3 | CNC(=S)N1CCN(c2cccc(OC)c2)CC1 | – | – | – | – | – | AC50 (Cytochrome P450 2C9): 22.4 µM (inconclusive)
4 | CC(C)c1ccc(NC(=O)N2CCc3ccccc3C2)cc1 | 12.1 µM (active) | 12.2 µM (active) | 18.3 µM (active) | – | – | –
5 | Oc1nc2cc3c(cc2cc1C(c1nnnn1C1CCCCC1)N1CCSCC1)OCCO3 (centres undefined) | – | – | – | – | – | EC50 [3]: > 53 µM (inactive)
6 | Cc1ccc(-c2nc3ccccc3n3nnnc23)cc1 | 0.363 µM (active) | 10.1 µM (active) | 4.81 µM (active) | – | – | –
7 | CC1=CC(C)(C)N2C(=O)C3(C(C#N)=C(N)Oc4cc(C)oc(=O)c43)c3cc(C)cc1c32 (centres undefined) | – | – | – | 0.253 µM (active) | > 60 µM (not active) | –
8 | O=C(Nc1ccc(-n2ccc(C(F)(F)F)n2)cc1)Nc1cccc(Cl)c1 | – | – | – | 2.01 µM (active) | 6.82 µM (active) | –
9 | O=C(/C=C/c1ccc([N+](=O)[O-])s1)N1CCN(c2ccccc2)CC1 | – | – | – | 1.81 µM (active) | 9.18 µM (active) | –
10 | Cc1ccc(-c2nn(-c3ccccc3)cc2C(=O)Nc2ccc(C)c(S(=O)(=O)N3CCOCC3)c2)cc1 | > 120 µM (not active) | > 120 µM (not active) | > 120 µM (not active) | 1.57 µM (active) | > 60 µM (not active) | –
11 | Cc1cc(Oc2ccccc2)nc(NCc2ccccc2)n1 | – | – | – | – | – | AC50 (Cytochrome P450 2C9): 10 µM (inconclusive)
12 | CCOC(=O)c1sc(N(Cc2ccccc2)C(=O)CN2C(=O)CN(C)C2=O)nc1C | – | – | – | – | – | AC50 (Cytochrome P450 2C9): 11.2 µM (inconclusive)
13 | N#Cc1c(N)n(Cc2ccccc2)c(=O)c2cc([N+](=O)[O-])ccc12 | – | – | – | 1.41 µM (active) | > 60 µM (not active) | –
14 | COc1cc2cc3c(N)c(C(=O)NCc4ccco4)sc3nc2cc1OC | 73.7 µM (active) | 49.9 µM (active) | 11.1 µM (active) | – | – | –
15 | CCOc1ccc(C(=O)Nc2c(C(=O)N3CCC(N4CCCCC4)CC3)oc3ccccc23)cc1 | – | – | – | 6.28 µM (active) | > 60 µM (not active) | –
16 | COc1ccc2cc(C(=O)NCC3CCCO3)[nH]c2c1 (centres undefined) | 7.02 µM (active) | 22.9 µM (active) | – | – | – | –
17 | Cn1c(=O)c(-c2cccs2)nc2cnc(Oc3ccccc3)nc21 | – | – | – | – | – | AC50 (Cytochrome P450 2C9): 20 µM (inconclusive)
18 | Cc1ccc(C2NC(=O)c3c(sc(C)c3C)N2)c(O)c1 (centres undefined) | 3.83 µM (active) | 22.4 µM (active) | 21.7 µM (active) | – | – | –
19 | CC(=O)c1cn(CCCCCCCCCCn2cc(C(C)=O)c(=O)[nH]c2=O)c(=O)[nH]c1=O | – | – | – | – | – | AC50 (Cytochrome P450 2C9): 3.16 µM (inconclusive)
20 | CCCOc1cccc(CN2CCCCC2c2cccnc2)c1 (centres undefined) | – | – | – | 1.53 µM (active) | > 60 µM (not active) | –
21 | Cc1cccc(N2CCN(C(c3ccncc3)c3nnnn3C(C)(C)C)CC2)c1C (centres undefined) | – | – | – | 2.57 µM (active) | > 60 µM (not active) | –
22 | CSCCC(=O)Nc1cc(S(=O)(=O)N2CCOCC2)ccc1N1CCN(C)CC1 | – | – | – | 1.94 µM (active) | > 60 µM (not active) | –
23 | CCOc1ccc(/C=C/C(=O)C(C(N)=O)=C2SCCS2)cc1 | 1.98 µM (active) | > 120 µM (not active) | 7.17 µM (active) | – | – | –
24 | Cc1cc(C)c(C)c(C(=O)CSc2nnc(-c3ccc4[nH]c(C)c(C)c4c3)o2)c1C | – | – | – | 1.61 µM (active) | > 60 µM (not active) | –
25 | O=[N+]([O-])c1cccc(-c2nnn(C34CC5CC(CC(C5)C3)C4)n2)c1 | > 120 µM (not active) | 7.38 µM (active) | 15 µM (active) | – | – | –

Row | SMILES | EC50 [1] | EC50 [2] | EC50 (H4) | EC50 [4] | EC50 [5] | further results
26 | Cn1c(C(=O)NCc2cccnc2)cc2sc(Cl)cc21 | – | – | – | 0.488 µM (active) | > 60 µM (not active) | –
27 | O=C(c1cnccn1)N1CCC2(CC1)CN(c1ccncc1)C2 | – | – | – | – | – | AC50 (Cytochrome P450 2C9): 25.1 µM (inconclusive)
28 | O=C(NCCCn1ccnc1)c1sc2cccc(F)c2c1Cl | – | – | – | 2.02 µM (active) | > 60 µM (not active) | –
29 | Cc1ccc(CNC(=O)c2cccc3c2C(=O)c2ccc(N4CCCCC4)cc2S3(=O)=O)cc1 | – | – | – | – | – | EC50 [3]: 6.87 µM (active)
30 | CC1(C)OC2OC(COC(=O)c3ccccc3)C3OC(C)(C)OC3C2O1 (centres undefined) | 15.5 µM (active) | 10.1 µM (active) | 17.3 µM (active) | – | – | –
31 | COc1cccc(CC2(CO)CCCN(Cc3cc4ccccc4[nH]3)C2)c1 (centres undefined) | – | – | – | 0.834 µM (active) | > 60 µM (not active) | EC50 [3]: 18.1 µM (active)
32 | CCOCCCN1C(=O)CN(C2CCCCC2)C(=O)C1c1ccc(OCC)c(OC)c1 (centres undefined) | – | – | – | – | – | AC50 (Cytochrome P450 2C9): 11.2 µM (inconclusive)
33 | c1ccc(-c2cc(-c3nc4ccccc4[nH]3)c3ccccc3n2)cc1 | – | – | – | 1.7 µM (active) | > 60 µM (not active) | –
34 | CCCCOC(=O)c1[nH]c(C)c(C(=O)OC)c1C | 2.88 µM (active) | 51.1 µM (active) | 37.7 µM (active) | – | – | –
35 | Brc1ccccc1C1CC(c2ccccc2)=Nc2ccccc2N1 (centres undefined) | 9.58 µM (active) | 11.5 µM (active) | 36.5 µM (active) | – | – | –
36 | N=C(NOC(=O)C1CCCCC1)c1ccc(Br)cc1 | 27.6 µM (active) | 28.7 µM (active) | 1.23 µM (active) | – | – | –
37 | CC1C(=O)OC2C1CCC1(C)CCC(=O)C(C)C21 (centres undefined) | – | – | – | 2.61 µM (active) | > 60 µM (not active) | –
38 | Cc1ccnc(NC(=O)CCCNC(=O)c2ccc(Cl)cc2)c1 | 18.2 µM (active) | 24.3 µM (active) | 51.9 µM (active) | – | – | –
39 | Cc1cc(C)c2c(CN3CCC(C)CC3)cc(=O)oc2c1 | 0.419 µM (active) | > 120 µM (not active) | 26.3 µM (active) | – | – | –
40 | CCC(C(=O)NCCCN1CCCC1=O)n1c2ccccc2c2nc(=O)cc(C)n21 (centres undefined) | – | – | – | – | – | EC50 [6]: > 150 µM (not active); EC50 (Streptokinase A): > 150 µM (not active); EC50 (Streptococcus): > 150 µM (not active)
41 | CN(C(=O)c1cccc(N2C(=O)C3C4C=CC(C4)C3C2=O)c1)C1CCCCC1 (centres undefined) | > 120 µM (not active) | > 120 µM (not active) | > 120 µM (not active) | – | – | –
42 | COc1ccc2[nH]c3c(c2c1)CN(C)CC3 | – | – | – | – | – | AC50 (Cytochrome P450 2C9): 39.8 µM (inconclusive)
43 | NC(=O)c1ccccc1Nc1nc2nc3ccccc3c(=O)n2cc1Br | > 120 µM (not active) | 8.23 µM (active) | > 120 µM (not active) | – | – | –
44 | CCc1ccc(NC(=O)C(C)OC(=O)/C=C/c2ccc(O)c(OC)c2)cc1 (centres undefined) | – | – | – | – | – | EC50 [3]: 5.63 µM (active)
45 | CN(C)c1ccc(/C=C2\Oc3ccc(C#Cc4cccc(N)c4)cc3C2=O)cc1 | – | – | – | – | – | EC50 [3]: 5.04 µM (active)
46 | COc1ccc(NC(=N)Nc2nc(C)cc(C)n2)cc1 | – | – | – | – | – | EC50 [3]: 13.5 µM (active)
47 | Cc1cccc(CNc2ncncc2-c2cccc(NS(C)(=O)=O)c2)c1 | – | – | – | – | – | AC50 (Cytochrome P450 2C9): 1 µM (inconclusive)
48 | O=c1c([N+](=O)[O-])cccn1Cc1ccc(F)cc1Cl | – | – | – | – | – | EC50 [6]: 3.27 µM (active); EC50 (Streptokinase A): > 150 µM (not active); EC50 (Streptococcus): 7.88 µM (active)
49 | COc1ccc2c(c1OC)CN1CCc3cc4c(cc3C1C2)OCO4 (centres undefined) [TETRAHYDROBERBERINE] | – | – | – | 3.43 µM (active) | > 60 µM (not active) | –

Source: ChEMBL document CHEMBL1201862, “PubChem BioAssay data set” (2004)
